Test results as given in ChEMBL document CHEMBL3861978, “Dinoflagellate-Related Amphidinolides from the Brazilian Octocoral Stragulum bicolor” (J Nat Prod, 2016).

Assay: Cytotoxicity against human HCT116 cells measured after 72 hrs by MTT assay
Type: functional, cell-based
Details: HCT-116, 72 h

SMILES | IC50
C=C1/C=C(\C)[C@](C)(O)C[C@H](O)CC(=O)[C@H](O)[C@@H](O)[C@H](C)C[C@H](C)OC(=O)/C(C)=C/CC/C=C/C(O)C(O)C[C@H](C)C1 (some centres not stated) | 9.8 µM
C=C1/C=C(\C)[C@@H](C)[C@@H](O)CC(=O)[C@@H](C)CC(=O)C[C@H]2CC[C@@H](O2)[C@@H](/C=C/C=C(\C)[C@@H](O)C(=C)CCC)OC(=O)C[C@@H]2O[C@H](C[C@H]2C)[C@H](O)C1 | 10.3 µM
